From PubChem BioAssay (NCI)
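A five-concentration, 48-hour dose response in 96-well plates underlies each endpoint, interpolated linearly between surrounding concentrations. GI50 = concentration required for 50% inhibition of growth. At the TGI there is no net growth.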

Assays:
Experiment in all cases: growth of human tumour cells (NCI), 48 h
SK-MEL-5 melanoma = system: SK-MEL-5 melanoma
UACC-62 melanoma = system: UACC-62 melanoma
NCI-H460 lung = system: NCI-H460 lung
MDA-N = system: MDA-N
OVCAR-3 ovarian = system: OVCAR-3 ovarian
A549 NSCLC = system: A549 NSCLC
SN12C renal = system: SN12C renal
MCF7 breast = system: MCF7 breast
NCI-H226 lung = system: NCI-H226 lung
MDA-MB-435 = system: MDA-MB-435
HOP-62 NSCLC = system: HOP-62 NSCLC
SF-268 CNS = system: SF-268 CNS
LOX IMVI melanoma = system: LOX IMVI melanoma
TK-10 renal = system: TK-10 renal
SR leukemia = system: SR leukemia
A498 renal = system: A498 renal
NCI/ADR-RES ovarian = system: NCI/ADR-RES ovarian
SK-MEL-28 melanoma = system: SK-MEL-28 melanoma
CAKI-1 renal = system: CAKI-1 renal
EKVX NSCLC = system: EKVX NSCLC
CCRF-CEM leukemia = system: CCRF-CEM leukemia
UO-31 renal = system: UO-31 renal
ACHN renal = system: ACHN renal
M14 melanoma = system: M14 melanoma
UACC-257 melanoma = system: UACC-257 melanoma
HL-60(TB) leukemia = system: HL-60(TB) leukemia
OVCAR-4 ovarian = system: OVCAR-4 ovarian
HCT-15 colon = system: HCT-15 colon
HCT-116 colon = system: HCT-116 colon
OVCAR-5 ovarian = system: OVCAR-5 ovarian
BT-549 breast = system: BT-549 breast
RPMI-8226 leukemia = system: RPMI-8226 leukemia
U251 CNS = system: U251 CNS
SW-620 colon = system: SW-620 colon
COLO 205 colon = system: COLO 205 colon
KM12 colon = system: KM12 colon
DU-145 prostate = system: DU-145 prostate
NCI-H23 lung = system: NCI-H23 lung
HOP-92 NSCLC = system: HOP-92 NSCLC
HCC-2998 colon = system: HCC-2998 colon
SNB-19 CNS = system: SNB-19 CNS
MOLT-4 leukemia = system: MOLT-4 leukemia
IGROV1 ovarian = system: IGROV1 ovarian
OVCAR-8 ovarian = system: OVCAR-8 ovarian
SK-MEL-2 melanoma = system: SK-MEL-2 melanoma
K-562 leukemia = system: K-562 leukemia
786-0 renal = system: 786-0 renal
SF-539 CNS = system: SF-539 CNS
PC-3 prostate = system: PC-3 prostate
SF-295 CNS = system: SF-295 CNS
SK-OV-3 ovarian = system: SK-OV-3 ovarian
HT29 colon = system: HT29 colon
SNB-75 CNS = system: SNB-75 CNS
RXF 393 renal = system: RXF 393 renal
NCI-H522 lung = system: NCI-H522 lung
T-47D breast = system: T-47D breast
MDA-MB-231 breast = system: MDA-MB-231 breast
MALME-3M melanoma = system: MALME-3M melanoma
HS 578T breast = system: HS 578T breast

Nc1ccc(C23CC4CC(C2)CC(c2ccc(N)cc2)(C4)C3)cc1
TGI (SK-MEL-5 melanoma): 26900 nM
TGI (UACC-62 melanoma): > 100000 nM
TGI (NCI-H460 lung): > 100000 nM
TGI (MDA-N): > 100000 nM
TGI (OVCAR-3 ovarian): > 100000 nM
TGI (A549 NSCLC): > 100000 nM
TGI (SN12C renal): 59500 nM
TGI (MCF7 breast): > 100000 nM
TGI (NCI-H226 lung): 44900 nM
TGI (MDA-MB-435): > 100000 nM
TGI (HOP-62 NSCLC): > 100000 nM
TGI (SF-268 CNS): > 100000 nM
TGI (LOX IMVI melanoma): > 100000 nM
TGI (TK-10 renal): > 100000 nM
TGI (SR leukemia): 38500 nM
TGI (A498 renal): 47400 nM
TGI (NCI/ADR-RES ovarian): > 100000 nM
TGI (SK-MEL-28 melanoma): > 100000 nM
TGI (CAKI-1 renal): > 100000 nM
TGI (EKVX NSCLC): 81600 nM
TGI (CCRF-CEM leukemia): 29700 nM
TGI (UO-31 renal): > 100000 nM
TGI (ACHN renal): > 100000 nM
TGI (M14 melanoma): 85500 nM
TGI (UACC-257 melanoma): > 100000 nM
TGI (HL-60(TB) leukemia): 51000 nM
TGI (OVCAR-4 ovarian): > 100000 nM
TGI (HCT-15 colon): > 100000 nM
TGI (HCT-116 colon): > 100000 nM
TGI (OVCAR-5 ovarian): 61400 nM
TGI (BT-549 breast): > 100000 nM
TGI (RPMI-8226 leukemia): 27400 nM
TGI (U251 CNS): 35600 nM
TGI (SW-620 colon): 28000 nM
TGI (COLO 205 colon): 52500 nM
TGI (KM12 colon): > 100000 nM
TGI (DU-145 prostate): > 100000 nM
TGI (NCI-H23 lung): > 100000 nM
TGI (HOP-92 NSCLC): > 100000 nM
TGI (HCC-2998 colon): 78600 nM
TGI (SNB-19 CNS): > 100000 nM
TGI (MOLT-4 leukemia): 28400 nM
TGI (IGROV1 ovarian): > 100000 nM
TGI (OVCAR-8 ovarian): > 100000 nM
TGI (SK-MEL-2 melanoma): > 100000 nM
TGI (K-562 leukemia): 36800 nM
TGI (786-0 renal): > 100000 nM
TGI (SF-539 CNS): 31100 nM

COc1ccc2c(c1)C(=O)/C(=C/c1ccc([N+](=O)[O-])o1)O2
GI50 (SK-MEL-5 melanoma): 1580 nM
TGI (SK-MEL-5 melanoma): 3020 nM
GI50 (UACC-62 melanoma): 1360 nM
TGI (UACC-62 melanoma): 2910 nM
GI50 (NCI-H460 lung): 1750 nM
TGI (NCI-H460 lung): 3830 nM
GI50 (OVCAR-3 ovarian): 878 nM
TGI (OVCAR-3 ovarian): 2220 nM
GI50 (A549 NSCLC): 2680 nM
TGI (A549 NSCLC): > 22800 nM
GI50 (SN12C renal): 1910 nM
TGI (SN12C renal): 4360 nM
GI50 (MCF7 breast): 716 nM
TGI (MCF7 breast): 2840 nM
GI50 (NCI-H226 lung): 1780 nM
TGI (NCI-H226 lung): 5830 nM
GI50 (MDA-MB-435): 1390 nM
TGI (MDA-MB-435): 3020 nM
GI50 (HOP-62 NSCLC): 1820 nM
TGI (HOP-62 NSCLC): 4090 nM
GI50 (PC-3 prostate): 1910 nM
TGI (PC-3 prostate): 8270 nM
GI50 (SF-268 CNS): 1850 nM
TGI (SF-268 CNS): 4020 nM
GI50 (LOX IMVI melanoma): 1400 nM
TGI (LOX IMVI melanoma): 2860 nM
GI50 (TK-10 renal): 1050 nM
TGI (TK-10 renal): 2590 nM
GI50 (SR leukemia): 198 nM
TGI (SR leukemia): 1230 nM
GI50 (A498 renal): 1640 nM
TGI (A498 renal): 4120 nM
GI50 (NCI/ADR-RES ovarian): 3110 nM
TGI (NCI/ADR-RES ovarian): > 38900 nM
GI50 (SK-MEL-28 melanoma): 1690 nM
TGI (SK-MEL-28 melanoma): 3220 nM
GI50 (SF-295 CNS): 2350 nM
TGI (SF-295 CNS): 9890 nM
GI50 (CAKI-1 renal): 432 nM
TGI (CAKI-1 renal): 1490 nM
GI50 (SK-OV-3 ovarian): 5360 nM
TGI (SK-OV-3 ovarian): > 29900 nM
GI50 (CCRF-CEM leukemia): 513 nM
TGI (CCRF-CEM leukemia): 2190 nM
GI50 (UO-31 renal): 796 nM
TGI (UO-31 renal): 2460 nM
GI50 (ACHN renal): 758 nM
TGI (ACHN renal): 2020 nM
GI50 (M14 melanoma): 1640 nM
TGI (M14 melanoma): 3320 nM
GI50 (UACC-257 melanoma): 1610 nM
TGI (UACC-257 melanoma): 3450 nM
GI50 (HL-60(TB) leukemia): 1740 nM
TGI (HL-60(TB) leukemia): 4190 nM
GI50 (OVCAR-4 ovarian): 810 nM
TGI (OVCAR-4 ovarian): 2060 nM
GI50 (HT29 colon): 954 nM
TGI (HT29 colon): 2740 nM
GI50 (HCT-15 colon): 613 nM
TGI (HCT-15 colon): 2140 nM
GI50 (SNB-75 CNS): 1730 nM
TGI (SNB-75 CNS): 5690 nM
GI50 (RXF 393 renal): 1390 nM
TGI (RXF 393 renal): 3050 nM
GI50 (HCT-116 colon): 495 nM
TGI (HCT-116 colon): 1220 nM
GI50 (OVCAR-5 ovarian): 1800 nM
TGI (OVCAR-5 ovarian): 3640 nM
GI50 (BT-549 breast): 1530 nM
TGI (BT-549 breast): 3440 nM
GI50 (NCI-H522 lung): 527 nM
TGI (NCI-H522 lung): 1050 nM
GI50 (RPMI-8226 leukemia): 2010 nM
TGI (RPMI-8226 leukemia): 6200 nM
GI50 (U251 CNS): 1640 nM
TGI (U251 CNS): 3430 nM
GI50 (SW-620 colon): 459 nM
TGI (SW-620 colon): 1220 nM
GI50 (T-47D breast): 770 nM
TGI (T-47D breast): 2590 nM
GI50 (COLO 205 colon): 1300 nM
TGI (COLO 205 colon): 2740 nM
GI50 (KM12 colon): 1650 nM
TGI (KM12 colon): 3110 nM
GI50 (DU-145 prostate): 2050 nM
TGI (DU-145 prostate): 3970 nM
GI50 (MDA-MB-231 breast): 1410 nM
TGI (MDA-MB-231 breast): 3170 nM
GI50 (NCI-H23 lung): 1800 nM
TGI (NCI-H23 lung): 4000 nM
GI50 (HOP-92 NSCLC): 793 nM
TGI (HOP-92 NSCLC): 2790 nM
GI50 (HCC-2998 colon): 1890 nM
TGI (HCC-2998 colon): 3740 nM
GI50 (SNB-19 CNS): 3090 nM
GI50 (MOLT-4 leukemia): 1670 nM
TGI (MOLT-4 leukemia): 3970 nM
GI50 (IGROV1 ovarian): 1020 nM
TGI (IGROV1 ovarian): 3580 nM
GI50 (OVCAR-8 ovarian): 1210 nM
TGI (OVCAR-8 ovarian): 5400 nM
GI50 (SK-MEL-2 melanoma): 1830 nM
TGI (SK-MEL-2 melanoma): 3830 nM
GI50 (MALME-3M melanoma): 1610 nM
TGI (MALME-3M melanoma): 3480 nM
GI50 (786-0 renal): 1790 nM
TGI (786-0 renal): 3430 nM
GI50 (SF-539 CNS): 1760 nM
TGI (SF-539 CNS): 3910 nM
GI50 (HS 578T breast): 2580 nM
TGI (HS 578T breast): > 26800 nM
